From ChEMBL document CHEMBL1136203, “Liquid-phase synthesis of a pegylated adenosine-oligoarginine conjugate, cell-permeable inhibitor of cAMP-dependent protein kinase” (Bioorg Med Chem Lett, 2003) come the findings set out here.

This test can be described thus: Inhibition of cAMP dependent Protein kinase A (PKA) catalytic subunit from bovine heart. Also on record: species or system Bos taurus.

Structures are written as SMILES. Square brackets hold non-standard residues; d marks the D form. Peptide text beside a SMILES is read from it. * marks the point of attachment. ξ: configuration not given here. Adenosine(5'-uronoyl) = Nc1ncnc2c1ncn2[C@@H]1O[C@H](C(=O)*)[C@@H](O)[C@H]1O; Biotin = O=C1N[C@H]2[C@H](CS[C@H]2CCCCC(=O)*)N1; NHCH2CH2OCH2CH2OMe = COCCOCCN*; NH(CH2)6NH2 = NCCCCCCN*; ξK = NCCCCC(N)C(=O)O; Ahx = NCCCCCC(=O)O

The term IC50 denotes the concentration at which inhibition is half-maximal. Higher therefore signals weaker potency in that assay. Turning to `N=C(N)NCCC[C@H](NC(=O)[C@H](CCCNC(=N)N)NC(=O)[C@H](CCCNC(=N)N)NC(=O)[C@H](CCCNC(=N)N)NC(=O)[C@H](CCCNC(=N)N)NC(=O)[C@H](CCCNC(=N)N)NC(=O)CCCCCNC(=O)[C@H]1O[C@@H](n2cnc3c(N)ncnc32)[C@H](O)[C@@H]1O)C(=O)O`, the IC50 was found to be 700 nM. That is a sub-micromolar value.

`COCCOCCNC(=O)C(CCCCNC(=O)CCCC[C@@H]1SC[C@@H]2NC(=O)N[C@@H]21)NC(=O)[C@H](CCCN=C(N)N)NC(=O)[C@H](CCCN=C(N)N)NC(=O)[C@H](CCCN=C(N)N)NC(=O)[C@H](CCCN=C(N)N)NC(=O)CCCCCNC(=O)[C@H]1O[C@@H](n2cnc3c(N)ncnc32)[C@H](O)[C@@H]1O` (stereo not given in full) ({Adenosine(5'-uronoyl)-Ahx}-RRRR[ξK](Biotin)-NHCH2CH2OCH2CH2OMe) yielded an IC50 of 1200 nM.

As for `O=S(=O)(NCCNC/C=C/c1ccc(Br)cc1)c1cccc2cnccc12`, the IC50 turned out to be 135 nM.

In turn, `NCCCCCCNC(=O)[C@H](CCCN=C(N)N)NC(=O)[C@H](CCCN=C(N)N)NC(=O)[C@H](CCCN=C(N)N)NC(=O)[C@H](CCCN=C(N)N)NC(=O)CCCCCNC(=O)[C@H]1O[C@@H](n2cnc3c(N)ncnc32)[C@H](O)[C@@H]1O` ({Adenosine(5'-uronoyl)-Ahx}-RRRR-{NH(CH2)6NH2}) yielded an IC50 of 680 nM.

Turning to `COCCOCCNC(=O)C(CCCCN)NC(=O)[C@H](CCCN=C(N)N)NC(=O)[C@H](CCCN=C(N)N)NC(=O)[C@H](CCCN=C(N)N)NC(=O)[C@H](CCCN=C(N)N)NC(=O)CCCCCNC(=O)[C@H]1O[C@@H](n2cnc3c(N)ncnc32)[C@H](O)[C@@H]1O` (stereo not given in full) ({Adenosine(5'-uronoyl)-Ahx}-RRRR[ξK]-NHCH2CH2OCH2CH2OMe), 460 nM corresponded to half-maximal inhibition (IC50).
